≈ marks a conversion by molar mass, not a printed value.
Key:
[1] = tested on: RAW264.7; test: Inhibition of LPS-induced IL-1beta mRNA level in mouse RAW264.7 cells in presence of 1 ug/ml LPS for 6 hrs by qRT-PCR analysis; format: functional, cell-based
[2] = tested on: RAW264.7; test: Inhibition of LPS-induced TNF-alpha mRNA level in mouse RAW264.7 cells in presence of 1 ug/ml LPS for 6 hrs by qRT-PCR analysis; format: functional, cell-based
[3] = Cytotoxicity against mouse RAW264.7 cells assessed as decrease in cell viability pretreated at 50 uM for 1 hr followed by addition of LPS incubated for 24 hrs by MTT assay; format: cell-based; details: read-out: INH
[4] = tested on: RAW264.7; test: Inhibition of LPS-induced TNF-alpha production in mouse RAW264.7 cells pretreated with compound for 1 hr followed by addition of 1 ug/ml LPS for 6 hrs by ELISA; format: functional, cell-based
[5] = tested on: RAW264.7; test: Toxicity in mouse RAW264.7 cells assessed as effect on TNF-alpha mRNA level by qRT-PCR analysis; format: cell-based
[6] = tested on: RAW264.7; test: Toxicity in mouse RAW264.7 cells assessed as effect on NO production by Griess method; format: cell-based
[7] = tested on: RAW264.7; test: Inhibition of LPS-induced NO production in mouse RAW264.7 cells at 100 ug/ml cotreated with 1 ug/ml LPS for 16 hrs by Griess reagent method; format: functional
[8] = tested on: RAW264.7; test: Inhibition of LPS-induced IL-6 mRNA level in mouse RAW264.7 cells in presence of 1 ug/ml LPS for 6 hrs by qRT-PCR analysis; format: functional, cell-based
[9] = tested on: RAW264.7; test: Inhibition of LPS-induced TNF-alpha production in mouse RAW264.7 cells pretreated with compound at 100 uM for 1 hr followed by addition of 1 ug/ml LPS for 6 hrs by ELISA; format: functional
[10] = tested on: Rattus norvegicus; test: Inhibition of LPS-induced TNF-alpha production in albino Wistar rat plasma pretreated with compound at 50 mg/kg, po followed by administration of 0.3 mg/kg, ip LPS measured after 90 mins by ELISA; format: functional
[11] = tested on: RAW264.7; test: Inhibition of LPS-induced TNF-alpha production in mouse RAW264.7 cells pretreated with compound at 10 uM for 1 hr followed by addition of 1 ug/ml LPS for 6 hrs by ELISA; format: functional

SMILES	inhibition [1]	inhibition [2]	cytotoxicity at 24 h, 50 µM [3]	IC50 [4]	Activity [5]	Activity [6]	inhibition (INH) [7]	inhibition [8]	inhibition (INH) [9]	inhibition (INH) [10]	inhibition (INH) [11]
O=C1N[C@@H](Cc2ccccc2)C(=O)N2C[C@H](O)C[C@@H]12	Dose-dependent effect	Dose-dependent effect	3%	14.2 µg/mL (≈ 54.6 µM)	Non-toxic	Non-toxic	43.5%	Dose-dependent effect			
O=C1NCC(=O)N2CCC[C@@H]12 [CYCLO(PROLYLGLYCYL)]	Dose-dependent effect	Dose-dependent effect	3%	4.5 µg/mL (≈ 29.2 µM)	Non-toxic	Non-toxic	39.7%	Dose-dependent effect			
CC(C)C[C@@H]1NC(=O)[C@@H]2C[C@@H](O)CN2C1=O	Dose-dependent effect	Dose-dependent effect	3%		Non-toxic	Non-toxic		Dose-dependent effect	49.3%	51%	
O=C1N[C@@H](Cc2ccccc2)C(=O)N2CCC[C@@H]12	Dose-dependent effect	Dose-dependent effect	3%		Non-toxic	Non-toxic		Dose-dependent effect	45%		
C[C@]12C=CC(=O)C=C1CC[C@@H]1[C@@H]2[C@@H](O)C[C@@]2(C)[C@H]1CC[C@]2(O)C(=O)CO [PREDNISOLONE]											42.8%

Reference: ChEMBL document CHEMBL3739388, “Attenuation of TNF-α secretion by L-proline-based cyclic dipeptides produced by culture broth of Pseudomonas aeruginosa” (Bioorg Med Chem Lett, 2015)
